In one experiment the test system is MM.1S-Cas9+ cells. The experiment can be described thus: Genome-scale CRISPR/Cas9 gene editing (LOF) resistance screens. The conditions noted are these: for sgRNA enrichment, extended degronimid treatment: Thal-SNS-032-resistant MM.1S cells, additional 2 weeks; for sgRNA enrichment in resistant cells, long-term screen: long-term treatment, NGS of sgRNAs. It counts as cell-based, human. The procedure: MM.1S cells transduced with lentiviral construct for SpCas9 were kindly provided from Quinlan Sievers (Ebert Lab, BWH/DFCI). MM.1S cells were also transduced with lentiviral construct for dCas9-VP64 (purchased from Addgene).
ii. Lentiviral transductions with sgRNA libraries: For the screen with the GECKOv2 sgRNA library, tumor cell transductions were performed in batches of 8×10^7 cells per sub-library for each replicate. Cells were incubated for 16 hrs in cell medium containing polybrene (2 μg/mL; Santa Cruz Biotechnology), 10 mM HEPES (pH 7.4) (Sigma-Aldrich) and viral prep (4 mL) diluted to achieve an MOI of 0.4. After the end of the incubation with the viral preps, cells were washed and incubated for an additional day. Transduced cells were cultured at an initial density of 1×10^6 cells/mL and were treated with puromycin (1 μg/mL) for up to 14 days immediately after transduction. After puromycin selection, MM.1S-Cas9^+ cells transduced with each GeCKOv2 sublibrary were plated at 60×10^6 cells per flask (T175, 100 mL) to enable coverage of ˜1000× and were sub-cultured at four to five-day intervals to prevent confluence. At each passage, cells were harvested, washed with PBS (Corning, N.Y.), pelleted (5000 rpm, 5 min, 4° C.) and frozen as cell pellets (−80° C.) for next generation sequencing, and also replated at 60×10^6 cells to maintain 1000× coverage.
For the genome-scale screens with the Brunello sgRNA library, tumor cell transductions were performed in batches of 5×10^7 cells per library for six replicates. Cells were incubated (18 h) in cell medium containing polybrene (5 μg/mL; Santa Cruz Biotechnology), 10 mM HEPES (pH 7.4) (Sigma-Aldrich) and viral prep (30 mL) diluted 1:1. Transduced cells were cultured at an initial density of 1×10^6 cells/mL and were treated with puromycin (1 μg/mL) for up to 5 days additional two days from transduction. After stable transduction, pooled MM.1S cells were plated at 40×10^6 cells per flask (T175, 100 mL) to enable coverage of 500× and were sub-cultured at three- to four day intervals to prevent confluence. At each passage, cells were harvested, washed with PBS (Corning), pelleted (5000 rpm, 5 min, 4° C.) and frozen as cell pellets (−80° C.) for next generation sequencing, and also replated at 40×10^6 cells (˜500× coverage).
iii. […] Following treatments, all cells were serially cultured without drug and allowed to regrow for as long as required to enable reseeding (60×10^6 cells per flask, 100 mL) and retreatment with individual drugs while maintaining ˜1000× coverage throughout. Concomitant with retreatment, remaining cells were frozen (−80° C.; 20% FBS/DMSO) for later analysis or assessed for drug resistance/sensitivity using CTG assays. Between treatments, and in order to maintain the health of cultures, dead cells were periodically removed using Ficoll centrifugation (1,500 rpm for 10-20 min). For all CRISPR drug treatment experiments, aliquots of MM.1S-Cas9+ cells transduced with the GeCKO(Sanjana et al., 2014; Shalem et al., 2014) or Brunello (Doench et al., 2016) sgRNA libraries were frozen immediately prior to experimentation to determine the baseline distribution of sgRNAs in the cell population.
For “long-term” treatment screens with Thal-SNS-032-, ARV-771- and MZ-1-resistant cells, we continuously treated MM.1S-Cas9+ cells (40×10^6, —500× coverage) transduced with the Brunello sgRNA library (4 weeks post-puromycin selection) with either each compound's (IC20) or vehicle control. Cells were serially passaged every 3-4 days to prevent confluence, each time replating at ˜500× coverage (100 mL) at the same time replenishing each compound or vehicle. Drug treatments were paused if cell numbers fell below 10×10^6 per flask, allowing cells to recover and regrow, and treatments were resumed at a lower concentration when cell numbers reached 40×10^6. At each passage, cells were assayed for drug sensitivity/resistance using CTG. […]

The next experiment deals with MM.1S Cas9+ cells. The experiment can be described thus: Dose-response assay of cells with individual sgRNA knock-outs, CTG. It counts as cell-based, human. The procedure: Non-targeting control sgRNAs and COPS7B sgRNAs were from GeCKOv2. Four sgRNAs were generated per each gene, except from COPS7B, for which 6 sgRNAs were available (Table S2). All sgRNAs were synthesized by CustomArray Inc (Bothell, Wash.). Cloning was performed according to the protocol published by Zhang et al. (media.addgene.org/cms/filer_public/4f/ab/4fabc269-56e2-4ba5-92bd-09dc89c1e862/zhang_lenticrisprv2_and_lentiguide_oligo_cloning_protocol_1.pdf) using a pHKO9 vector. Briefly, to clone the sgRNA guide sequence, plasmids were digested with BsmBI (New England Biolabs, Ipswich, Mass.) at 55° C. for 1 hour. Oligonucleotides for each sgRNA guide sequence were annealed and phosphorylated using T4 Ligation Buffer and T4 polynucleotide kinase (New England Biolabs) at 37° C. for 30 minutes and then annealed by heating to 95° C. for 5 minutes and cooling to 25° C. at 1.5° C./minute. Using T4 ligation buffer and T4 ligase (New England Biolabs), annealed oligos were ligated into gel purified vectors (Qiagen) at 65° C. for 10 minutes. 2.5 ug of the ligation product were transformed in 30 uL E. coli electrocompetent cells (Lucigen E.cloni 10 G ELITE PLUS, Invitrogen). Subsequently, 500 uL of transformed cells were plated on LB Agar-AmpR (ThermoFisher Scientific) and incubated overnight at 37° C. Three colonies per plate were then picked and inoculated in a mini-prep culture (Qiagen). The product was then digested with BsmBI and XhoI (New England Biolabs) at 37° C. for 1 h and compared to the uncut control on 1% agarose gel. One out of three colonies (10 uL) was then precultured in 3 mL LB Broth-AmpR and shaken at 37° C. for 6 h. Afterwards it was transferred to a 250 mL LB Broth-AmpR flask and incubated overnight at 37° C. Each culture was then inoculated into a maxiprep culture (Qiagen).
Also, CRBN, VHL, TCEBJ, TCEB2, UBE2R2 and FBXW2 sgRNA are selected from Brunello library and cloned using pLVX-hyg-sgRNA1 Vector system (Takara Bio USA, CA) according to the manufacturer's manual. b(takarabio.com/assets/documents/User %20Manual/Lenti-X_CRISPR-Cas9_System_User_Manual_121316.pdf)
ii. Lentiviral transductions with constructs for individual sgRNAs: 500×10^3 to 1×10^6 MM.1S Cas9 cells were plated in 50 uL of complete RPMI1640 medium per well in a 24-well plate, and additional 100 uL of complete RPMI1640 medium were added to cover the well completely. Cells were incubated in cell medium containing polybrene (5 to 8 μg/mL; Santa Cruz Biotechnology), and viral prep. 24 hours after addition of viral preps, media were changed and, after another 48 h, puromycin selection (1 to 2 ug/ml per well) was started. After 7 days of puromycin selection, transduced MM.1S Cas9+ cells were collected and expanded in T75 flasks.
iii. […] In the case of Thal-SNS-032 or ARV771, cells are plated 384-well plate and treated each concentration described at figure and viability assays were performed at 72 hrs.

Entries after “also recorded” stand apart in the source; their conditions may differ.

On to `CC(C)(C)c1cnc(CSc2cnc(NC(=O)C3CCN(CC(=O)NCCOCCOCCOCCNc4cccc5c4C(=O)N(C4CCC(=O)NC4=O)C5=O)CC3)s2)o1` (stereo not drawn) [Thal-SNS-032], for which, in the experiment with MM.1S-Cas9+ cells, the “sgRNA enrichment, extended degronimid treatment” value was “CRBN is the only gene which exhibits enrichment of its sgRNAs; also recorded: further enrichment of MM cells containing sgRNA against CRBN”; the “sgRNA enrichment in resistant cells, long-term screen” value (“sgRNA enrichment in resistant cells” below) is “pronounced enrichment of sgRNAs for CRBN itself, and COP9 signalosome complex genes”. The “Thal-SNS-032 responsiveness after individual sgRNAs” value with MM.1S Cas9+ cells (sgRNAs for COPS7B, COPS2, DDB1 or COPS8) was “decrease the Thal-SNS-032 responsiveness”.
Take `Cc1sc2c(c1C)C(c1ccc(Cl)cc1)=N[C@@H](CC(=O)NCCCCCCCCNC(=O)COc1cccc3c1C(=O)N(C1CCC(=O)NC1=O)C3=O)c1nnc(C)n1-2` (stereo partly drawn) [dBET6]: in the experiment with MM.1S-Cas9+ cells, the “sgRNA enrichment, extended degronimid treatment” value was “CRBN is the only gene which exhibits enrichment of its sgRNAs; also recorded: further enrichment of MM cells containing sgRNA against CRBN” and the “sgRNA enrichment in resistant cells” value is recorded as “significant enrichment of sgRNAs targeting CRBN itself, as well as other components or regulators of the cullin-RING ligase (CRL) complex”. Further, in the experiment on MM.1S Cas9+ cells (sgRNAs for COPS7B, COPS8 or CRBN), the “response to dBET6 after individual sgRNAs” value is listed as “decreases the response of MM.1S cells to dBET6”.
Turning to `Cc1ncsc1-c1ccc([C@H](C)NC(=O)[C@@H]2C[C@@H](O)CN2C(=O)[C@@H](NC(=O)COCCCOCCNC(=O)C[C@@H]2N=C(c3ccc(Cl)cc3)c3c(sc(C)c3C)-n3c(C)nnc32)C(C)(C)C)cc1` [ARV-771], the “sgRNA enrichment in resistant cells” value in the experiment on MM.1S-Cas9+ cells was “enrichment of sgRNAs for CUL2, VHL itself”. Further, the “activity against cells with sgRNAs against CRBN” value with MM.1S Cas9+ cells (MM.1S cells) is given as “no significant changes in ARV771 activity”. For the same compound, the “response of cells with sgRNAs against COPS7B or COPS8” value in the experiment on MM.1S Cas9+ cells (compared to parental MM.1S cells) is given as “decreased response”.

For the origin of these results see US20220288051A1, “METHODS FOR TREATING CANCER USING SERIAL ADMINISTRATION OF E3 UBIQUITIN LIGASE DEGRADERS” (Dana-Farber Cancer Institute, Inc., priority 2019, published 2022).
